Assay results published in patent US20180360100A1 (SCIENTIFIC HOLDINGS, LLC, priority 2017, published 2018).
“Also recorded” adds a separate entry of the source.

Key:
CB1 = CB1 (Homo sapiens, UniProt P21554); conditions: cited from earlier work
CB2 = CB2 (Homo sapiens, UniProt P34972); conditions: cited from earlier work
cannabinoid receptors [1] = conditions: cited from earlier work
[2] = Solubilities of pigments in diluents, terpenes and cannabinoids; conditions: in OBP (dipropylene glycol), nexus, terpenes, cannabinoids
Description: Solubilities of Pigments. The present disclosure encompasses solubility embodiments.

cannabinoid receptors [3] = conditions: cited from earlier work; remark: listed apart in the source

Chain of CB2 (P34972 whole entry, species assumed): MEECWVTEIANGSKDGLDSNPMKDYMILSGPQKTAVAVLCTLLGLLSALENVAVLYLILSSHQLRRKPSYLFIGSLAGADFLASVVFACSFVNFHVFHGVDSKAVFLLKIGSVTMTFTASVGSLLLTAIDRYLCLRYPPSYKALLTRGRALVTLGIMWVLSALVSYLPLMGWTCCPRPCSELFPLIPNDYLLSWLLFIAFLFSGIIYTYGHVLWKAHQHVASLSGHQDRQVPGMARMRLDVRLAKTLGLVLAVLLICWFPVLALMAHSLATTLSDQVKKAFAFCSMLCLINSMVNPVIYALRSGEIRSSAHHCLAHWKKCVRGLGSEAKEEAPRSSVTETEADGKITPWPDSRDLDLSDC
Chain of CB1 (P21554 whole entry, species assumed): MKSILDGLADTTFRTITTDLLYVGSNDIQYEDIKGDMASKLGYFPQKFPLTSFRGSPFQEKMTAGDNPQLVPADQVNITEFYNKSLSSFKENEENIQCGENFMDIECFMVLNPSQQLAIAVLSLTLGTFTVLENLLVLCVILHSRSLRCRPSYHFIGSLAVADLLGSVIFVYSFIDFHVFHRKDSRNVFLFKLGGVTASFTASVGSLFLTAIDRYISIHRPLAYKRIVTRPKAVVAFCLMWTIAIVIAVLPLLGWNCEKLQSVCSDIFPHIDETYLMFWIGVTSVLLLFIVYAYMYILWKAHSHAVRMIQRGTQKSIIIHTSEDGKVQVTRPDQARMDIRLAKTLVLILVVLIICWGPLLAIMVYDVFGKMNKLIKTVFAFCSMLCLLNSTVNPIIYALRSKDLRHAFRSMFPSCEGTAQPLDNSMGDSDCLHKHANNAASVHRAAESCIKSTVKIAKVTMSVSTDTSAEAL

Row | Molecule | binding to CB1 (CB1) | binding to CB2 (CB2) | potentiation of binding of 2-arachidonoyl-glycerol (cannabinoid receptors [1]) | solubility of pigment [2] | potentiation of activity of ligands of cannabinoid receptors (cannabinoid receptors [3])
1 | CCCCC/C=C\C/C=C\CCCCCCCC(=O)OC(CO)CO [2-linoleoyl-glycerol] | do not bind | do not bind | potentiate the binding of 2-arachidonoyl-glycerol |  | 
2 | CCCCCCCCCCCCCCCC(=O)OC(CO)CO [2-palmitoyl-glycerol] | do not bind | do not bind | potentiate the binding of 2-arachidonoyl-glycerol |  | 
3 | CC1=C[C@H](O)CC(C)(C)[C@H]1/C=C/C(C)=C/C=C/C(C)=C/C=C/C=C(C)/C=C/C=C(C)/C=C/C1=C(C)C[C@@H](O)CC1(C)C [Lutein] |  |  |  | soluble in both obp, nexus, terpenes, and cannabinoids | 
4 | CCCCCCCCCCCCCCCC(=O)NCCO [palmitoylethanolamine] | do not bind | do not bind |  |  | potentiate activity of ligands of cannabinoid receptors
5 | CCCCCCCCCCCCCCCCCC(=O)NCCO [stearoylethanolamine] | do not bind | do not bind |  |  | potentiate activity of ligands of cannabinoid receptors
6 | Anthocyanins |  |  |  | only soluble in OBP (dipropylene glycol), not it nexus or cannabinoids alone; also recorded: only soluble in dipropylene glycol (i.e. OBP), not in nexus or cannabinoids alone | 
7 | carotene |  |  |  | soluble in both obp, nexus, terpenes, and cannabinoids | 
